Assays:
HeLa Cells [1] = experiment: GFP plasmid transfection with DOTMA/DOPE plus surface ligand peptide, fluorescent plate reader (Example 1); format: cell-based; details: DOTMA/DOPE + peptide linked to R12 or K16; EF1Alpha eGFP plasmid; 42 hours
HuVec Cells = experiment: as above; format: cell-based; details: DOTMA/DOPE + peptide linked to R12 or K16; EF1Alpha eGFP plasmid; 42 hours
Summary of the method: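 HuVEC cells in 96 well plates at 70% confluence were transfected with EF1Alpha eGFP plasmid using a 1:1 molar DOTMA/DOPE lipid mixed with a surface ligand peptide carrying a covalently attached nucleic acid binding moiety. Complexes formed for 10 minutes, 0.01 mL went to each well, cells were incubated 42 hours at 37° C., and fluorescence was read on a plate reader.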

Human Fibroblast Cells = experiment: as above; format: cell-based; details: DOTMA/DOPE + peptide linked to R12 or K16; EF1Alpha eGFP plasmid; 42 hours
Summary of the method: (§1)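 DOTMA/DOPE (1:1 molar) plus peptide bearing a poly-Arg or poly-Lys tag was complexed 10 min with EF1alpha eGFP plasmid in OptiMEM, then added to 70%-confluent cells (0.01 mL fibroblasts; 0.02 mL C2C12, Jurkat). After 42 h at 37 °C, GFP was read by plate reader and compared with DOTMA without ligand.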

Jurkat Cells = experiment: as above; format: cell-based; details: DOTMA/DOPE + peptide linked to R12 or K16; EF1Alpha eGFP plasmid; 42 hours
Summary of the method: as §1

NL-1 iPS Cells = experiment: as above; format: cell-based; details: DOTMA/DOPE + peptide linked to R12 or K16; EF1Alpha eGFP plasmid; 42 hours
C2C12 Cells = experiment: as above; format: cell-based, mouse; details: DOTMA/DOPE + peptide linked to R12 or K16; EF1Alpha eGFP plasmid; 42 hours
Summary of the method: as §1

HeLa Cells [2] = experiment: GFP transfection with DOTMA/SEQ ID NO: 72 (fusogenic peptide)/peptide compared with Lipofectamine 2000; format: cell-based
Summary of the method: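 DOTMA/DOPE (1:1 molar) lipid mixed with polyarginine- or polylysine-tagged cell-surface-ligand peptide, complexed 10 min with EF1alpha eGFP plasmid at 10 μg/mL in OptiMEM, fusogenic peptide at 0.1 mg/mL final; HeLa cells ~70% confluent given 0.01 mL complex. GFP read by fluorescence plate reader and microscopy (% cells transfected) after 42 h at 37° C; Lipofectamine 2000 as comparator.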

some examined cell types = experiment: Summary of Example 1: transfection expression and % cells transfected over the no peptide control; format: cell-based; details: on some examined cell types
Summary of the method: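 Cells at 70% confluence received DNA complexes of EF1Alpha eGFP plasmid with DOTMA/DOPE (1:1) plus oligo-Arg- or oligo-Lys-tagged peptide ligands, formed 10 min at room temperature. After 42 h at 37 °C, 5% CO2, GFP read by plate reader and % transfected cells judged microscopically, relative to lipid without peptide.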

[3] = 0.1 μL of DOTMA/SEQ ID NO: 72/Peptide in well of a 96 well plate
[4] = 0.2 μL of DOTMA/SEQ ID NO: 72/Peptide in well of a 96 well plate
[5] = 0.3 μL of DOTMA/SEQ ID NO: 72/Peptide in well of a 96 well plate
[6] = 0.4 μL of DOTMA/SEQ ID NO: 72/Peptide in well of a 96 well plate

| Substance | Relative Fluorescence of Transfection of HeLa Cells (RF) (HeLa Cells [1]) | Relative Fluorescence of Transfection of HuVec Cells (RF) (HuVec Cells) | Relative Fluorescence of Transfection of Human Fibroblast Cells (RF) (Human Fibroblast Cells) | Relative Fluorescence of Transfection of Jurkat Cells (RF) (Jurkat Cells) | Relative Fluorescence of Transfection of NL-1 iPS Cells (RF) (NL-1 iPS Cells) | Relative Fluorescence of Transfection of C2C12 Cells (RF) (C2C12 Cells) | Relative Fluorescence DOTMA/SEQ ID NO: 72/Peptide, HeLa Cells (RF) (HeLa Cells [2]; [3]) | Relative Fluorescence DOTMA/SEQ ID NO: 72/Peptide, HeLa Cells (RF) (HeLa Cells [2]; [4]) | Relative Fluorescence DOTMA/SEQ ID NO: 72/Peptide, HeLa Cells (RF) (HeLa Cells [2]; [5]) | Relative Fluorescence DOTMA/SEQ ID NO: 72/Peptide, HeLa Cells (RF) (HeLa Cells [2]; [6]) | transfection expression and % cells transfected over the no peptide control (some examined cell types) |
| --- | --- | --- | --- | --- | --- | --- | --- | --- | --- | --- | --- |
| 341 (LRAHAVDVNG) [compound 341] | 4108 | 15906 | 2284 | 18042 | 20446 | 2141 | 6406 | 7469 | 8020 | 7546 | increased transfection expression and the % cells transfected |
| 323 (HQQDLGTAGSCLRKFSTMFLF) [compound 323] | 14067 | 12815 | 4826 | 2900 | 21694 | 7698 | 15537 | 16620 | 10839 | 9244 | increased transfection expression and the % cells transfected |
| 454 (TGLSCLQRFTTM) [compound 454] | 34550 | 13336 | 7568 | 8224 | 18100 | 9280 | 34033 | 37099 | 27412 | 16023 | increased transfection expression and the % cells transfected |
| 358 (GHRGPTGRPGKRGKQGQKGDS) [compound 358] | 15132 | 25398 | 5665 | 18820 | 21956 | 2271 | 12331 | 12683 | 13686 | 11097 | increased transfection expression and the % cells transfected |
| 342 (TAGSCLRKFSTM) [compound 342] | 33666 | 12804 | 9525 | 12825 | 11493 | 9496 | 41299 | 36040 | 28841 | 18351 | increased transfection expression and the % cells transfected |
| 450 (TAGSCLRKFSCL) [compound 450] | 21045 | 20911 | 6996 | 8779 | 29856 | 3795 | 11962 | 17346 | 12553 | 10241 | increased transfection expression and the % cells transfected |

Source: patent US20250154525A1, “PLANT VIRUS MOVEMENT PROTEINS AND METHODS OF USING SAME” (Molecular Transfer, Inc., priority 2016, published 2025)
